Reference: PubChem BioAssay (NCI)
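Following 48 hours of exposure in 96-well plates, responses at five concentrations were used to interpolate endpoints linearly. GI50 marks 50% less growth. TGI marks complete inhibition of growth.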

How the values were obtained:
Test in all cases: growth of human tumour cells (NCI), 48 h
HCC-2998 colon = system: HCC-2998 colon
HOP-62 NSCLC = system: HOP-62 NSCLC
NCI-H460 lung = system: NCI-H460 lung
OVCAR-3 ovarian = system: OVCAR-3 ovarian
SR leukemia = system: SR leukemia
EKVX NSCLC = system: EKVX NSCLC
NCI/ADR-RES ovarian = system: NCI/ADR-RES ovarian
OVCAR-8 ovarian = system: OVCAR-8 ovarian
SK-MEL-28 melanoma = system: SK-MEL-28 melanoma
CCRF-CEM leukemia = system: CCRF-CEM leukemia
ACHN renal = system: ACHN renal
COLO 205 colon = system: COLO 205 colon
NCI-H522 lung = system: NCI-H522 lung
A549 NSCLC = system: A549 NSCLC
HL-60(TB) leukemia = system: HL-60(TB) leukemia
HCT-15 colon = system: HCT-15 colon
MDA-MB-468 breast = system: MDA-MB-468 breast
786-0 renal = system: 786-0 renal
PC-3 prostate = system: PC-3 prostate
RXF 393 renal = system: RXF 393 renal
SNB-75 CNS = system: SNB-75 CNS
SF-268 CNS = system: SF-268 CNS
SNB-19 CNS = system: SNB-19 CNS
NCI-H226 lung = system: NCI-H226 lung
U251 CNS = system: U251 CNS
NCI-H23 lung = system: NCI-H23 lung
SF-539 CNS = system: SF-539 CNS
UO-31 renal = system: UO-31 renal
SF-295 CNS = system: SF-295 CNS
MDA-MB-435 = system: MDA-MB-435
MCF7 breast = system: MCF7 breast
KM12 colon = system: KM12 colon
SK-MEL-5 melanoma = system: SK-MEL-5 melanoma
DU-145 prostate = system: DU-145 prostate
RPMI-8226 leukemia = system: RPMI-8226 leukemia
HS 578T breast = system: HS 578T breast
HT29 colon = system: HT29 colon
OVCAR-4 ovarian = system: OVCAR-4 ovarian
UACC-257 melanoma = system: UACC-257 melanoma
K-562 leukemia = system: K-562 leukemia
IGROV1 ovarian = system: IGROV1 ovarian
HCT-116 colon = system: HCT-116 colon
CAKI-1 renal = system: CAKI-1 renal
SK-OV-3 ovarian = system: SK-OV-3 ovarian
UACC-62 melanoma = system: UACC-62 melanoma
MALME-3M melanoma = system: MALME-3M melanoma
OVCAR-5 ovarian = system: OVCAR-5 ovarian
SN12C renal = system: SN12C renal
T-47D breast = system: T-47D breast
TK-10 renal = system: TK-10 renal
SK-MEL-2 melanoma = system: SK-MEL-2 melanoma
LOX IMVI melanoma = system: LOX IMVI melanoma
MOLT-4 leukemia = system: MOLT-4 leukemia
BT-549 breast = system: BT-549 breast
MDA-MB-231 breast = system: MDA-MB-231 breast
M14 melanoma = system: M14 melanoma
A498 renal = system: A498 renal
HOP-92 NSCLC = system: HOP-92 NSCLC

CC1=C2C(=C[C@@](C)(COCOCCCl)[C@@H]2O)C(=O)[C@](C)(O)C12CC2
GI50 (HCC-2998 colon): 199 nM | TGI (HCC-2998 colon): 495 nM | GI50 (HOP-62 NSCLC): 344 nM | TGI (HOP-62 NSCLC): 1880 nM | GI50 (NCI-H460 lung): 113 nM | TGI (NCI-H460 lung): 656 nM | GI50 (OVCAR-3 ovarian): 265 nM | TGI (OVCAR-3 ovarian): 765 nM | GI50 (SR leukemia): 64.7 nM | TGI (SR leukemia): > 100 µM | GI50 (EKVX NSCLC): 285 nM | TGI (EKVX NSCLC): 870 nM | GI50 (NCI/ADR-RES ovarian): 160 nM | TGI (NCI/ADR-RES ovarian): 438 nM | GI50 (OVCAR-8 ovarian): 211 nM | TGI (OVCAR-8 ovarian): 790 nM | GI50 (SK-MEL-28 melanoma): 389 nM | TGI (SK-MEL-28 melanoma): 1310 nM | GI50 (CCRF-CEM leukemia): 626 nM | TGI (CCRF-CEM leukemia): > 33.8 µM | GI50 (ACHN renal): 55.4 nM | TGI (ACHN renal): 387 nM | GI50 (COLO 205 colon): 258 nM | TGI (COLO 205 colon): 924 nM | GI50 (NCI-H522 lung): 184 nM | TGI (NCI-H522 lung): 495 nM | GI50 (A549 NSCLC): 322 nM | TGI (A549 NSCLC): 6.86 µM | GI50 (HL-60(TB) leukemia): 126 nM | TGI (HL-60(TB) leukemia): 2130 nM | GI50 (HCT-15 colon): 64.4 nM | TGI (HCT-15 colon): 2550 nM | GI50 (MDA-MB-468 breast): 123 nM | TGI (MDA-MB-468 breast): 299 nM | GI50 (786-0 renal): 638 nM | TGI (786-0 renal): 1980 nM | GI50 (PC-3 prostate): 230 nM | GI50 (RXF 393 renal): 154 nM | TGI (RXF 393 renal): 351 nM | GI50 (SNB-75 CNS): 241 nM | TGI (SNB-75 CNS): 1250 nM | GI50 (SF-268 CNS): 305 nM | TGI (SF-268 CNS): 1700 nM | GI50 (SNB-19 CNS): 346 nM | TGI (SNB-19 CNS): 2460 nM | GI50 (NCI-H226 lung): 845 nM | TGI (NCI-H226 lung): 4.01 µM | GI50 (U251 CNS): 113 nM | TGI (U251 CNS): 19.9 µM | GI50 (NCI-H23 lung): 105 nM | TGI (NCI-H23 lung): 304 nM | GI50 (SF-539 CNS): 202 nM | TGI (SF-539 CNS): 447 nM | GI50 (UO-31 renal): 186 nM | TGI (UO-31 renal): 549 nM | GI50 (SF-295 CNS): 234 nM | TGI (SF-295 CNS): 7.76 µM | GI50 (MDA-MB-435): 322 nM | TGI (MDA-MB-435): 1090 nM | GI50 (MCF7 breast): 45 nM | TGI (MCF7 breast): 3.18 µM | GI50 (KM12 colon): 350 nM | TGI (KM12 colon): 4.83 µM | GI50 (SK-MEL-5 melanoma): 209 nM | TGI (SK-MEL-5 melanoma): 499 nM | GI50 (DU-145 prostate): 142 nM | TGI (DU-145 prostate): 1510 nM | GI50 (RPMI-8226 leukemia): 3.75 µM | TGI (RPMI-8226 leukemia): > 58.3 µM | GI50 (HS 578T breast): 598 nM | TGI (HS 578T breast): 4 µM | GI50 (HT29 colon): 174 nM | GI50 (OVCAR-4 ovarian): 265 nM | TGI (OVCAR-4 ovarian): 860 nM | GI50 (UACC-257 melanoma): 647 nM | TGI (UACC-257 melanoma): 3.97 µM | GI50 (K-562 leukemia): 445 nM | TGI (K-562 leukemia): > 100 µM | GI50 (IGROV1 ovarian): 229 nM | TGI (IGROV1 ovarian): 961 nM | GI50 (HCT-116 colon): 128 nM | TGI (HCT-116 colon): > 41.5 µM | GI50 (CAKI-1 renal): 263 nM | TGI (CAKI-1 renal): 2100 nM | GI50 (SK-OV-3 ovarian): 415 nM | TGI (SK-OV-3 ovarian): 2170 nM | GI50 (UACC-62 melanoma): 198 nM | TGI (UACC-62 melanoma): 429 nM | GI50 (MALME-3M melanoma): 229 nM | TGI (MALME-3M melanoma): 509 nM | GI50 (OVCAR-5 ovarian): 178 nM | TGI (OVCAR-5 ovarian): 1070 nM | GI50 (SN12C renal): 299 nM | TGI (SN12C renal): 1200 nM | GI50 (T-47D breast): 506 nM | TGI (T-47D breast): 5.69 µM | GI50 (TK-10 renal): 429 nM | GI50 (SK-MEL-2 melanoma): 184 nM | TGI (SK-MEL-2 melanoma): 350 nM | GI50 (LOX IMVI melanoma): 137 nM | TGI (LOX IMVI melanoma): 493 nM | GI50 (MOLT-4 leukemia): 141 nM | TGI (MOLT-4 leukemia): > 48.3 µM | GI50 (BT-549 breast): 243 nM | TGI (BT-549 breast): 786 nM | GI50 (MDA-MB-231 breast): 294 nM | TGI (MDA-MB-231 breast): 1030 nM | GI50 (M14 melanoma): 285 nM | TGI (M14 melanoma): 990 nM | GI50 (A498 renal): 1610 nM | TGI (A498 renal): 4.99 µM | GI50 (HOP-92 NSCLC): 248 nM | TGI (HOP-92 NSCLC): 685 nM
